Test results: PMC9964390, “Design, Synthesis and Phenotypic Profiling of Simplified Gedatolisib Analogues” (Pharmaceuticals, 2023)

Columns and labels:
K562 = test: MTT cell viability assay; assay type: cell-based; settings: Homo sapiens, K562, 72 h MTT; for Emax: read-out: Emax (maximum effect at maximum concentration used)
Procedure: (§1) For the evaluation of cellular cytotoxicity in cancer cell lines, the compounds were tested at concentrations ranging from 0.00003 μM to 150 μM. Immortalized cancer cells were selected: PC-3 (PTEN-mutated prostate adenocarcinoma), MCF-7 (PI3KCA-mutated breast carcinoma), K562 (P53-mutated chronic myeloid leukemia), CCRF-CEM (acute lymphoblastic leukemia with mutation in PTEN) and MOLT-4 (acute lymphoblastic leukemia with mutation in PI3KR1/PTEN). Peripheral blood mononuclear cells (PBMCs) were used to determine the cytotoxic selectivity index (SI). All immortalized cells were cultured in RPMI 1640 medium with 10% (v/v) FBS, streptomycin + penicillin, at 37 °C in a humidified incubator containing 5% CO2.
(§2) Cell viability was assessed by the MTT assay. The lines selected for this study were plated according to their respective densities, which ranged from 3 × 10^4 to 4 × 10^4 cells per well. Subsequently, they were treated with test compounds at different concentrations (0.00003 μM to 150 μM), gedatolisib and GSK-1059615.
(§3) After incubation, the plates are centrifuged at 440× g for 10 min. Then, 110 μL of the supernatant was withdrawn and each well received 10μL of the MTT solution. The plate was again incubated in an oven at 37 °C and 5% CO2 for 3 to 4 h. At the end of the incubation time, 100 μL of SDS-HCL detergent was added to solubilize the formazan crystals. The plate was shaken on an automatic overnight shaker and then read at a wavelength of 595 nm on the Molecular Devices Spectramax M5 plate reader.

MCF7 = test: MTT cell viability assay; assay type: cell-based; settings: Homo sapiens, MCF7, 72 h MTT; for CC50: 95% confidence interval in brackets; for Emax: read-out: Emax (maximum effect at maximum concentration used)
Procedure: as §1, §2, §3

PC-3 = test: MTT cell viability assay; assay type: cell-based; settings: Homo sapiens, PC-3, 72 h MTT; for CC50: 95% confidence interval in brackets; for Emax: read-out: Emax (maximum effect at maximum concentration used)
Procedure: as §1, §2, §3

CCRF-CEM cell line = test: Muse Cell Cycle Kit; assay type: cell-based, human; settings: 48 h
Procedure: The Guava Muse Luminex® Cell Cycle Kit (catalog n^o MCH100106, Luminex) contains the DNA marker propidium iodide (PI) and RNAse A to avoid nonspecific labelling.
After 48 h of incubation in an incubator at 37 °C with 5% CO2, 1 mL of the MOLT-4 cell solution and 500 µL of the CCRF-CEM cell solution, contained in the wells, were transferred to Eppendorf tubes and centrifuged at 300× g for 5 min. The volumes used ensured that the cell density remained within the recommended range (1 × 10^6 to 4 × 10^6 cells/mL) at the end of the 48 h incubation period.
The supernatant was discarded, and the pellet formed was resuspended in 1 mL of saline PBS, homogenised, and centrifuged at 300× g for 5 min. The formed pellet was resuspended in residual PBS by homogenization. To fix cellular events, 1 mL of ice-cold 70% alcohol was added dropwise into the tubes and vortexed at medium speed. The samples were incubated, before staining, for at least 3 h at −20 °C.
At the end of the incubation time at −20 °C, the samples were centrifuged at 300× g for 5 min, and then the supernatant was discarded and resuspended in 250 µL of PBS. The samples were again centrifuged at 300× g for 5 min and the supernatant discarded, which constituted the washing step. The pellet formed was resuspended in 200 µL of the Guava Muse Luminex® Cell Cycle, and the tubes were incubated for 30 min at room temperature, away from light.
After incubation, the samples were read in Guava Muse Luminex®, and the data with the histograms generated, which contain information on the percentage of the different phases of the cell cycle, were analysed in the statistical program Prism6. This methodology was performed in duplicate of three independent experiments.

[1] = system: PI3K activation and phosphorylation in CCRF-CEM cell line; test: Muse PI3K Activation Dual Detection Kit; assay type: cell-based, human
Procedure: The methodology evaluates the activation and phosphorylation of PI3K and was performed from the labelling with the Guava Muse Luminex® PI3K Activation Dual Detection Kit (catalog n^o. MCH200103, Luminex) containing the anti-AKT/PKB-PECy5 antibody to measure total PI3K and the anti-phospho-AKT (Ser473)-Alexa Fluor® 555 antibody for measurement of activated PI3K.
Following 48 h of incubation in an incubator at 37 °C with 5% CO2, 1 mL of the cell solution was transferred to an Eppendorf tube, washed with PBS and centrifuged at 300× g for 5 min. The supernatant was discarded, and the pellet formed was resuspended in 500 µL of PBS. The samples were again centrifuged at 300× g for 5 min and the supernatant discarded.
Then the cell solutions were resuspended in 200 µL of assay buffer (Part no. CS202124), followed by the addition of 200 µL of fixation buffer (Part n^o. CS202122), ending up with a total volume of 400 µL per sample. The samples were incubated for 5 min on ice and centrifuged at 300× g for 5 min and the supernatant discarded.
Cells were permeabilized by adding 200 µL of ice-cold permeabilization buffer (Part n^o. CS202125) and then incubated on ice for 5 min and centrifuged at 300× g for 5 min, and the supernatant was discarded. The formed pellets were resuspended in 450 µL of assay buffer and vortexed at medium speed. In total, 90 µL of the solution from each sample was aliquoted into a new tube, and 10 µL of the cocktail solution containing Anti-phospho-Akt (Ser473), Alexa Fluor®555 and Anti-Akt/PKB, Pecy5 was added. The samples were homogenised and incubated for 30 min in the dark at room temperature.
After the incubation step, 100 µL of assay buffer was added per sample and centrifuged at 300× g for 5 min, and the supernatant was discarded. The formed pellets were resuspended in 200 µL of assay buffer and vortexed, and the samples were read in Guava Muse Luminex®. Data from three independent experiments performed in duplicate were analysed in the Prism6 program to determine the percentage of cells expressing activated and inactivated PI3K.

[2] = system: PC-3, MCF7, K562, CCRF-CEM and MOLT-4; test: MTT single-concentration cytotoxicity screening; assay type: cell-based, human; settings: single concentration 30 μM; reduction in cell viability ≥ 50% selected for CC50
Procedure: In a first approach, the assay was validated with two standard drugs: gedatolisib and GSK-1059615.
After understanding the response profile of the selected cell lines to the treatment with gedatolisib and GSK-1059615, we investigated the cytotoxic activity of compounds 5a-f at a single concentration (30 μM). […] During the experiments, compounds 5a (LASSBio-2250), 5b (LASSBio-2251) and 9 (CAS-942789959) were insoluble and precipitated on the culture medium. Therefore, they were evaluated also at the screening concentration of 1 μM.
as §2, §3

Row | Compound | CC50 (K562; K562, 72 h) | CC50 (K562; K562, 72 h, 95% confidence interval in brackets) | Emax (K562) | CC50 (MCF7) | Emax (MCF7) | CC50 (PC-3) | Emax (PC-3) | action on the cell cycle (CCRF-CEM cell line; both concentrations tested (0.6 µM and 6 µM)) | increase of the percentage of cells in the inactivated state ([1]; at its CC50 (~6 μM) and 10 times lower (0.6 μM)) | CC50 (K562; 95% confidence interval in brackets) | cytotoxic effect on leukemia cell lines at single concentration [2] | action on the cell cycle (CCRF-CEM cell line; its CC50 value (50 µM)) | percentage of inactivated cells raised to ([1]; concentration 10 times higher than its CC50) | percentage of inactivated cells raised to ([1]; tested at its CC50)
1 | CN(C)C1CCN(C(=O)c2ccc(NC(=O)Nc3ccc(-c4nc(N5CCOCC5)nc(N5CCOCC5)n4)cc3)cc2)CC1 [Gedatolisib, gedatolisib] | > 24 µM | 24.1 µM | 64% | 0.07 µM | 87% | 0.54 µM | 80% | cell cycle arrest in the G0/G1 phase | about 75% | – | – | – | – | –
2 | c1ccc(N2CCN(c3nc(N4CCCNCC4)nc(N4CCOCC4)n3)CC2)cc1 [5f, 4-(4-(1,4-Diazepan-1-yl)-6-(4-phenylpiperazin-1-yl)-1,3,5-triazin-2-yl)morpholine] | – | – | 84% | 37 µM | 91% | 62.1 µM | 84% | – | – | 23.4 µM | cytotoxic effect | cell cycle arrest in G0/G1 | 65% | 30%
